# Molecular target: 5-hydroxytryptamine receptor 2A (Homo sapiens, UniProt P28223)
# Test: Antagonistic activity at human 5-HT2A receptor assessed as calcium flux after 10 mins by FLIPR assay
# Type: functional
# Settings: not given
# Sequence of 5-hydroxytryptamine receptor 2A (P28223 whole entry): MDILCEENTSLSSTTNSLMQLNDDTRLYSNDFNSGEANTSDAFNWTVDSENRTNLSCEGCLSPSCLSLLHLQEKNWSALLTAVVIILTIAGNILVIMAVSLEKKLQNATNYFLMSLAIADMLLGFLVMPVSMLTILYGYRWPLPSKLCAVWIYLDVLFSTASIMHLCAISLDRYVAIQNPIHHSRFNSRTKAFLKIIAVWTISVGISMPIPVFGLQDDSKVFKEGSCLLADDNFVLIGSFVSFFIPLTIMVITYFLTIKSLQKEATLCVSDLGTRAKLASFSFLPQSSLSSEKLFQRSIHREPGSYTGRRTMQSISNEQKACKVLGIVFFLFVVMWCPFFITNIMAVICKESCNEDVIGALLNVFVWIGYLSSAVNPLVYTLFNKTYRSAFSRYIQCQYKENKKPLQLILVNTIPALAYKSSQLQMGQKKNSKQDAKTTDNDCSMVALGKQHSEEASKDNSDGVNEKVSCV
row,SMILES,IC50 [nM]
1,CNC(=O)c1cccc(OCCCCN2CCN(c3cccc(Cl)c3Cl)CC2)c1,1100
2,CNC(=O)c1cccc(OCCCCN2CCN(c3cccc4c3OC(F)(F)O4)CC2)c1,> 10000
3,CNC(=O)c1cc(OCCCCN2CCN(c3cccc(Cl)c3Cl)CC2)ccc1F,360
4,CNC(=O)c1cc(OCCCCN2CCN(c3cccc(Cl)c3Cl)CC2)ccc1C,460
5,CNC(=O)c1cccc(OCCCCN2CCN(c3cccc(Cl)c3Cl)CC2)c1F,30.3
6,CNC(=O)c1ccc(Cl)c(OCCCCN2CCN(c3cccc(Cl)c3Cl)CC2)c1,1380
7,CNC(=O)c1cccc(OCCCCN2CCN(c3nsc4ccccc34)CC2)c1,180

# Results, then the compound that gave them:
row,IC50 [nM],SMILES
1,1900,CNC(=O)c1cc(OCCCCN2CCN(c3cccc4c3OC(F)(F)O4)CC2)ccc1F
2,1320,CNC(=O)c1cc(F)cc(OCCCCN2CCN(c3cccc(Cl)c3Cl)CC2)c1
3,840,CNC(=O)c1ccc(OC)c(OCCCCN2CCN(c3cccc(Cl)c3Cl)CC2)c1
4,670,CCNC(=O)c1cccc(OCCCCN2CCN(c3cccc(Cl)c3Cl)CC2)c1
5,340,CNC(=O)c1cc(OCCCCN2CCN(c3cccc(Cl)c3Cl)CC2)ccc1Cl
6,216,CNC(=O)c1cccc(OCCCCN2CCN(c3cccc4sccc34)CC2)c1

# Molecular target: T1, 5-hydroxytryptamine receptor 1A (Homo sapiens, UniProt P08908)
# T1 sequence (P08908 whole entry): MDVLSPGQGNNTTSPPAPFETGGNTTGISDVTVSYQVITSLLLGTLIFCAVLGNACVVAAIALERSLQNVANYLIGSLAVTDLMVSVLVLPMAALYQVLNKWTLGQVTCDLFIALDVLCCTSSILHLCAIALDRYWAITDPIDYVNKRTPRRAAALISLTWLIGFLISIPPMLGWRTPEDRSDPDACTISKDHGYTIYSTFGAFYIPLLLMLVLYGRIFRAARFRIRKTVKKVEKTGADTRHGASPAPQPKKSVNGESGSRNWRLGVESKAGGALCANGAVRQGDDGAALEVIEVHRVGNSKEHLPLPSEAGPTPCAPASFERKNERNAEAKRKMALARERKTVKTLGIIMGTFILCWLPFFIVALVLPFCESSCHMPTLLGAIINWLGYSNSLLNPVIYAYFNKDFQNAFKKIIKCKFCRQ
# Test: Agonistic activity at human 5-HT1A receptor measured after 60 mins by Ultra Lance cAMP assay
# Type: functional
# Settings: not given
row,SMILES,EC50 [nM]
1,CNC(=O)c1cccc(OCCCCN2CCN(c3cccc(Cl)c3Cl)CC2)c1,24
2,CNC(=O)c1cccc(OCCCCN2CCN(c3cccc4c3OC(F)(F)O4)CC2)c1,12
3,CNC(=O)c1cc(OCCCCN2CCN(c3cccc(Cl)c3Cl)CC2)ccc1F,7.2
4,CNC(=O)c1cc(OCCCCN2CCN(c3cccc(Cl)c3Cl)CC2)ccc1C,74
5,CNC(=O)c1cccc(OCCCCN2CCN(c3cccc(Cl)c3Cl)CC2)c1F,301
6,CNC(=O)c1ccc(Cl)c(OCCCCN2CCN(c3cccc(Cl)c3Cl)CC2)c1,> 10000
7,CNC(=O)c1cccc(OCCCCN2CCN(c3nsc4ccccc34)CC2)c1,4.3

# The remaining lines, values ahead:
row,EC50 [nM],SMILES
1,8.2,CNC(=O)c1cc(OCCCCN2CCN(c3cccc4c3OC(F)(F)O4)CC2)ccc1F
2,361,CNC(=O)c1cc(F)cc(OCCCCN2CCN(c3cccc(Cl)c3Cl)CC2)c1
3,26,CNC(=O)c1ccc(OC)c(OCCCCN2CCN(c3cccc(Cl)c3Cl)CC2)c1
4,101,CCNC(=O)c1cccc(OCCCCN2CCN(c3cccc(Cl)c3Cl)CC2)c1
5,34.4,CNC(=O)c1cc(OCCCCN2CCN(c3cccc(Cl)c3Cl)CC2)ccc1Cl
6,5.1,CNC(=O)c1cccc(OCCCCN2CCN(c3cccc4sccc34)CC2)c1

# System: Mus musculus
# Test: Toxicity in ig dosed mouse assessed as induction of catalepsy by horizontal bar method
# Type: organism-based
# Settings: in vivo, po
row,SMILES,ED50 [mg/kg]
1,Cc1nc2n(c(=O)c1CCN1CCC(c3noc4cc(F)ccc34)CC1)CCCC2 [RISPERIDONE],0.3

# Molecular target: D(2) dopamine receptor (Homo sapiens, UniProt P14416)
# Sequence (P14416 whole entry): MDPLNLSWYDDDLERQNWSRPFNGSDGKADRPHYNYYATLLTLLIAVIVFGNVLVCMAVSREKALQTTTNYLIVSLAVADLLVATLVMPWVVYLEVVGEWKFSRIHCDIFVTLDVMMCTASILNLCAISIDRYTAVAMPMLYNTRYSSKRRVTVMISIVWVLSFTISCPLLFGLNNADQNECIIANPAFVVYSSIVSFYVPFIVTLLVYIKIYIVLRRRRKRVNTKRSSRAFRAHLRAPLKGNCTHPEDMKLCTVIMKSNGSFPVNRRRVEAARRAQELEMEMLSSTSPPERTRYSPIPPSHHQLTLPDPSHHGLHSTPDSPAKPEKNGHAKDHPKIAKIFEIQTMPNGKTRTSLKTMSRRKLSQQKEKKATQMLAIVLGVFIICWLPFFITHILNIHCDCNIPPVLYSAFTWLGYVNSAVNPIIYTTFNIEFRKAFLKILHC
# Test: Antagonistic activity at human dopamine D2 receptor measured after 60 mins by Ultra Lance cAMP assay
# Type: functional
# Settings: not given
row,SMILES,IC50 [nM]
1,CNC(=O)c1cccc(OCCCCN2CCN(c3cccc(Cl)c3Cl)CC2)c1,32
2,CNC(=O)c1cccc(OCCCCN2CCN(c3cccc4c3OC(F)(F)O4)CC2)c1,4.1
3,CNC(=O)c1cc(OCCCCN2CCN(c3cccc(Cl)c3Cl)CC2)ccc1F,39.4
4,CNC(=O)c1cc(OCCCCN2CCN(c3cccc(Cl)c3Cl)CC2)ccc1C,9.8
5,CNC(=O)c1cccc(OCCCCN2CCN(c3cccc(Cl)c3Cl)CC2)c1F,171
6,CNC(=O)c1ccc(Cl)c(OCCCCN2CCN(c3cccc(Cl)c3Cl)CC2)c1,58.5
7,CNC(=O)c1cccc(OCCCCN2CCN(c3nsc4ccccc34)CC2)c1,10

# Results, then the compound that gave them:
row,IC50 [nM],SMILES
1,30,CNC(=O)c1cc(OCCCCN2CCN(c3cccc4c3OC(F)(F)O4)CC2)ccc1F
2,1580,CNC(=O)c1cc(F)cc(OCCCCN2CCN(c3cccc(Cl)c3Cl)CC2)c1
3,12,CNC(=O)c1ccc(OC)c(OCCCCN2CCN(c3cccc(Cl)c3Cl)CC2)c1
4,116,CCNC(=O)c1cccc(OCCCCN2CCN(c3cccc(Cl)c3Cl)CC2)c1
5,34.9,CNC(=O)c1cc(OCCCCN2CCN(c3cccc(Cl)c3Cl)CC2)ccc1Cl
6,91,CNC(=O)c1cccc(OCCCCN2CCN(c3cccc4sccc34)CC2)c1

# — ChEMBL document CHEMBL3804825, “Synthesis, structure-activity relationships, and biological evaluation of a series of benzamides as potential multireceptor antipsychotics” (Bioorg Med Chem Lett, 2016)
